# In patent publication US20240174690A1, “ANNULATED 2-AMINO-3-CYANO THIOPHENES AND DERIVATIVES FOR THE TREATMENT OF CANCER” (BOEHRINGER INGELHEIM INTERNATIONAL GMBH, priority 2021, published 2024):
# pIC50: −log10 of the molar value. Read-outs that look alike come from different tables or passages of the source.
# Experiments:
# SK-CO-1 cells = experiment: SK-CO-1 CTG proliferation assay (120 h) (CRC, G12V); type: cell-based; settings: SK-CO-1 cells (CRC, G12V), CTG 120 h
# Procedure, shortened: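 Compound exposure lasted 120 h in KRAS G12V SK-CO-1 cells seeded overnight at 500 cells/well in 10% FCS EMEM. CellTiter-Glo RLU normalised to DMSO wells gave percent viability, and a four-parameter model fit yielded IC50.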
# AsPC-1 cells = experiment: AsPC-1 CTG proliferation assay (120 h) (pancreatic cancer, G12D); type: cell-based
# Procedure, shortened: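 CellTiter-Glo luminescence, normalised to DMSO wells, measured viability after 120 h compound exposure. Cells were AsPC-1 pancreatic cancer (G12D) plated at 2000 per well in RPMI/10% FCS the day before dosing. IC50 derived by four-parameter regression.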
# [1] = Plasma protein binding assay (PPB), equilibrium dialysis, 10% FCS in PBS; type: in vitro ADME; settings: for fraction unbound: bovine, read-out: PPB 10% FCS (% fu)
# Procedure, shortened: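 Test compound (1-10 μmol/L) in 10% FCS in PBS was dialysed for 3-5 h at 37° C versus PBS ± dextran across a semipermeable membrane. LC-MS of both compartments after protein precipitation gave Cserum and Cbuffer, from which the unbound fraction fu was derived.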
# [2] = Solubility measurement (DMSO solution method), McIlvaine buffer pH 4.5 or 6.8; type: physicochemical; settings: DMSO stock diluted to 250 μM, 24 h shaking at ambient temperature; for solubility at 24 h: aqueous buffer, kinetic from dmso stock
# Procedure, shortened: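 Filtrate concentration by LC-UV, calibrated to a known-concentration reference dissolved completely in acetonitrile/water (1:1). Samples came from 250 µM final dilutions of DMSO stock in pH 4.5 or 6.8 McIlvaine buffer, shaken 24 h at ambient temperature, then filtered.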
# SAS cells = experiment: SAS CTG proliferation assay (120 h) (HNSCC, wt amplified); type: cell-based
# Procedure, shortened: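 Viability measured by CellTiter-Glo luminescence, normalized to DMSO wells, after 120 h compound treatment of SAS cells. Cells grown in DMEM:F12 plus 10% FCS at 300 cells per well, dosed the day after seeding. Four-parameter fit gives IC50.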
# NCI-H2122 cells = experiment: NCI-H2122 CTG proliferation assay (120 h) (NSCLC, G12C); type: cell-based
# Procedure, shortened: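 Proliferation was read by CellTiter-Glo luminescence after 120 h of compound exposure, starting one day after seeding 200 NCI-H2122 (G12C) cells per well in RPMI/10% FCS. RLU relative to DMSO wells gave percent viability, and four-parameter nonlinear regression gave IC50.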
# [3] = McIlvaine buffer pH 4.5, read-out: solubility pH 4.5
# [4] = McIlvaine buffer pH 6.8, read-out: solubility pH 6.8
Structure (SMILES),pIC50 (SK-CO-1 cells; Homo sapiens),"pIC50 (AsPC-1 cells; Homo sapiens, ASPC1)",fraction unbound [1],"solubility at 24 h [2, 3] [µg/mL]","solubility at 24 h [2, 4] [µg/mL]",pIC50 (NCI-H2122 cells; Homo sapiens),pIC50 (SAS cells),pIC50 (SK-CO-1 cells),pIC50 (AsPC-1 cells),PPB 10% FCS (% fu) ([1]; fraction unbound),solubility pH 4.5 ([2]; McIlvaine buffer pH 4.5) [μg/ml],solubility pH 6.8 ([2]; McIlvaine buffer pH 6.8) [μg/ml],pIC50 (NCI-H2122 cells)
C[C@H](Oc1cc(Cl)nc(-c2onc3c2CCC[C@@]32CCCc3sc(N)c(C#N)c32)n1)[C@@H]1CCCN1C [I-1],6.38,5.23,0.53,> 125,101,5.39,5.54,–,–,–,–,–,–
C[C@H](Oc1cc(N2CCNC3(CCC3)C2)nc(-c2onc3c2CCC[C@@]32CCCc3sc(N)c(C#N)c32)n1)[C@@H]1CCCN1C [I-3],5.68,6.56,0.68,> 173,> 176,5.47,5.31,–,–,–,–,–,–
C[C@H](Oc1cc(-n2ccnc2)nc(-c2onc3c2CCC[C@@]32CCCc3sc(N)c(C#N)c32)n1)[C@@H]1CCCN1C [I-20],6.73,5.27,0.58,> 157,98,5.87,7.46,–,–,–,–,–,–
C[C@H](Oc1cc(-c2ccn(C)n2)nc(-c2onc3c2CCC[C@@]32CCCc3sc(N)c(C#N)c32)n1)[C@@H]1CCCN1C [I-21],–,–,–,–,–,–,7.40,7.52,5.53,83,110,33,5.84
C[C@H](Oc1cc([C@@H]2CCOC2)nc(-c2onc3c2CCC[C@@]32CCCc3sc(N)c(C#N)c32)n1)[C@@H]1CCCN1C [I-22],7.70,6.19,0.38,112,104,4.99,7.48,–,–,–,–,–,–
CO[C@@H]1C[C@@H]([C@H](C)Oc2cc(-c3ccn(C)n3)nc(-c3onc4c3CCC[C@@]43CCCc4sc(N)c(C#N)c43)n2)N(C)C1 [I-23],6.86,5.09,0.2,106,< 1,5.05,7.62,–,–,–,–,–,–
Cc1nc(-c2cc(O[C@@H](C)[C@@H]3CCCN3C)nc(-c3onc4c3CCC[C@@]43CCCc4sc(N)c(C#N)c43)n2)cs1 [I-24],7.17,5.46,0.19,68,< 1,6.03,7.11,–,–,–,–,–,–
C[C@H](Oc1cc(-c2ccc(N)nc2)nc(-c2onc3c2CCC[C@@]32CCCc3sc(N)c(C#N)c32)n1)[C@@H]1CCCN1C [I-25],6.45,5.46,0.35,> 170,44,5.78,6.55,–,–,–,–,–,–
C[C@H](Oc1cc(-c2cnsc2)nc(-c2onc3c2CCC[C@@]32CCCc3sc(N)c(C#N)c32)n1)[C@@H]1CCCN1C [I-27],7.28,5.67,0.21,67,1,6.22,6.96,–,–,–,–,–,–
Cc1ccc(-c2cc(O[C@@H](C)[C@@H]3CCCN3C)nc(-c3onc4c3CCC[C@@]43CCCc4sc(N)c(C#N)c43)n2)cn1 [I-28],6.88,5.47,0.3,93,8,5.58,6.03,–,–,–,–,–,–
C[C@H](Oc1cc(-n2nccn2)nc(-c2onc3c2CCC[C@@]32CCCc3sc(N)c(C#N)c32)n1)[C@@H]1CCCN1C [I-29],6.42,4.99,0.54,> 114,82,5.50,7.01,–,–,–,–,–,–
C[C@H](Oc1cc(-c2ccn(C[C@@H](C)O)n2)nc(-c2onc3c2CCC[C@@]32CCCc3sc(N)c(C#N)c32)n1)[C@@H]1CCCN1C [I-30],7.51,5.34,0.46,> 150,> 141,6.08,7.30,–,–,–,–,–,–
C[C@H](Oc1cc(-n2ccnn2)nc(-c2onc3c2CCC[C@@]32CCCc3sc(N)c(C#N)c32)n1)[C@@H]1CCCN1C [I-32],6.95,5.35,0.48,100,14,5.82,7.28,–,–,–,–,–,–
C[C@H](Oc1cc(-c2ccn3ncnc3c2)nc(-c2onc3c2CCC[C@@]32CCCc3sc(N)c(C#N)c32)n1)[C@@H]1CCCN1C [I-33],6.74,5.43,0.31,8,4,5.85,7.09,–,–,–,–,–,–
C[C@H](Oc1cc(-c2ccn(C3COC3)n2)nc(-c2onc3c2CCC[C@@]32CCCc3sc(N)c(C#N)c32)n1)[C@@H]1CCCN1C [I-34],7.08,5.38,0.54,> 135,92,5.97,6.73,–,–,–,–,–,–
C[C@H](Oc1cc(N2C[C@H](C)N(C)[C@@H](C)C2)nc(-c2onc3c2CCC[C@@]32CCCc3sc(N)c(C#N)c32)n1)[C@@H]1CCCN1C [I-43],6.05,6.00,0.73,> 346,> 306,5.85,5.75,–,–,–,–,–,–

# More lines, main results first:
pIC50 (SK-CO-1 cells; Homo sapiens),"pIC50 (AsPC-1 cells; Homo sapiens, ASPC1)",fraction unbound [1],"solubility at 24 h [2, 3] [µg/mL]","solubility at 24 h [2, 4] [µg/mL]",pIC50 (NCI-H2122 cells; Homo sapiens),Structure (SMILES),pIC50 (SAS cells),pIC50 (SK-CO-1 cells),pIC50 (AsPC-1 cells),PPB 10% FCS (% fu) ([1]; fraction unbound),solubility pH 4.5 ([2]; McIlvaine buffer pH 4.5) [μg/ml],solubility pH 6.8 ([2]; McIlvaine buffer pH 6.8) [μg/ml],pIC50 (NCI-H2122 cells)
5.91,5.79,0.43,> 141,> 134,5.46,C[C@H](Oc1cc(N2CC(N(C)C)C2)nc(-c2noc3c2CCC[C@@]32CCCc3sc(N)c(C#N)c32)n1)[C@@H]1CCCN1C [II-7],5.92,–,–,–,–,–,–
6.16,5.56,0.17,> 141,> 132,6.03,C[C@H](Oc1cc(N2CCN(CCO)CC2)nc(-c2noc3c2CCC[C@@]32CCCc3sc(N)c(C#N)c32)n1)[C@@H]1CCCN1C [II-8],6.27,–,–,–,–,–,–
5.78,6.09,0.69,> 143,> 135,5.07,C[C@H](Oc1cc(N2C[C@@H](N(C)C)[C@@H](O)C2)nc(-c2noc3c2CCC[C@@]32CCCc3sc(N)c(C#N)c32)n1)[C@@H]1CCCN1C [II-10],5.45,–,–,–,–,–,–
6.10,5.85,0.89,> 150,> 141,5.45,C[C@H](Oc1cc(N2C[C@@H](N(C)C)[C@@H](F)C2)nc(-c2noc3c2CCC[C@@]32CCCc3sc(N)c(C#N)c32)n1)[C@@H]1CCCN1C [II-11],5.88,–,–,–,–,–,–
6.09,6.26,0.2,> 143,> 137,5.86,C[C@H](Oc1cc(N2CC[C@H](N3CCCCC3)C2)nc(-c2noc3c2CCC[C@@]32CCCc3sc(N)c(C#N)c32)n1)[C@@H]1CCCN1C [II-12],5.72,–,–,–,–,–,–
6.05,6.60,0.24,> 139,> 147,5.30,C[C@H](Oc1cc(N2CCN(C)C3(COC3)C2)nc(-c2noc3c2CCC[C@@]32CCCc3sc(N)c(C#N)c32)n1)[C@@H]1CCCN1C [II-13],6.35,–,–,–,–,–,–
5.24,6.15,0.77,–,–,5.32,CN[C@H]1CCN(c2cc(O[C@@H](C)[C@@H]3CCCN3C)nc(-c3noc4c3CCC[C@@]43CCCc4sc(N)c(C#N)c43)n2)C1 [II-35],5.32,–,–,–,–,–,–
6.76,6.67,0.54,–,–,5.59,C[C@H](Oc1cc([C@H]2CCN(C)C2)nc(-c2noc3c2CCC[C@@]32CCCc3sc(N)c(C#N)c32)n1)[C@@H]1CCCN1C [II-38],7.33,–,–,–,–,–,–
5.91,5.75,0.17,–,–,5.44,C[C@H](Oc1cc(N2CCN(C)CC2)nc(-c2noc3c2CCC[C@@]32CCCc3sc(N)c(C#N)c32)n1)[C@@H]1CCCN1[C@@H]1CCOC1 [II-39],5.53,–,–,–,–,–,–
